Reference: ChEMBL document CHEMBL4049436, “Inhibitors of 15-Prostaglandin Dehydrogenase To Potentiate Tissue Repair” (J Med Chem, 2017)

Legend:
Liver = experiment: (§1) Half life in mouse liver S9 fractions at 2 uM in presence of NADPH by LC-MS/MS analysis; type: ADME, tissue-based; conditions: s9, 2 µM
[1] = as §1; type: ADME, tissue-based; conditions: liver S9 fraction
[2] = (§2) Cmax in CD1 mouse at 10 mg/kg, ip measured at 10 to 1440 mins post dose by LC-MS/MS analysis; type: ADME, organism-based; parameters: dose 10 mg/kg, route intraperitoneal; conditions: CD1, mouse, in vivo
[3] = (§3) AUC in CD1 mouse at 10 mg/kg, ip measured at 10 to 1440 mins post dose by LC-MS/MS analysis; type: ADME, organism-based; conditions: CD1, mouse, in vivo
Mus musculus [4] = experiment: as §2; type: ADME, organism-based; parameters: dose 10 mg/kg, route intraperitoneal; conditions: mouse, in vivo
[5] = Plasma concentration in CD1 mouse at 10 mg/kg, ip measured at 3 hrs post dose by LC-MS/MS analysis; type: ADME, organism-based
Mus musculus [6] = experiment: as §3; type: ADME, organism-based; conditions: mouse, in vivo
[7] = Half life in human liver S9 fraction at 2 uM by LC-MS/MS analysis; type: ADME, tissue-based
[8] = Plasma concentration in […] mouse at […], ip measured up to 3 hrs post dose by LC-MS/MS analysis; type: ADME, organism-based

| Compound | t1/2 (Liver) [h] | half-life at 2 µM [1] [h] | Cmax [2] [nM] | AUC [3] [ng·h/mL] | Cmax (Mus musculus [4]) [nM] | concentration at 3 h [5] [nM] | AUC (Mus musculus [6]) [µg·min/mL] | further results |
| --- | --- | --- | --- | --- | --- | --- | --- | --- |
| CCCC[S@@+]([O-])c1sc2nc(-c3cccs3)cc(-c3ccccc3)c2c1N | – | 0.217 | 1600 | 717 | – | – | – | – |
| CCCC[S+]([O-])c1sc2nc(-c3nccs3)nc(-c3ccccc3)c2c1N (racemic) | – | – | – | – | 10600 | 60 | 172 | – |
| CCCC[S+]([O-])c1sc2nc(-c3nccs3)cc(-c3ccc(COC(=O)CN(C)C)cc3)c2c1N (stereo not drawn) | 0.033 | – | – | – | – | – | – | – |
| CCCC[S+]([O-])c1sc2nc(-c3cccs3)cc(-c3ccccc3)c2c1N (stereo not drawn) | – | 1.38 | 1500 | 1380 | – | – | – | – |
| CCCC[S+]([O-])c1sc2nc(-c3nccs3)cc(-c3ccc(CO)cc3)c2c1N (stereo not drawn) | 0.217 | – | – | – | – | – | – | – |

Now from value to molecule, other results behind:

| t1/2 (Liver) [h] | half-life at 2 µM [1] [h] | Cmax [2] [nM] | AUC [3] [ng·h/mL] | Cmax (Mus musculus [4]) [nM] | concentration at 3 h [5] [nM] | AUC (Mus musculus [6]) [µg·min/mL] | Compound | further results |
| --- | --- | --- | --- | --- | --- | --- | --- | --- |
| > 4 | – | – | – | – | – | – | COCCC[S+]([O-])c1sc2nc(-c3nccs3)cc(-c3cnc(C)n3C)c2c1N (stereo not drawn) | – |
| > 4 | – | – | – | 6200 | 60 | 116 | COCC[S+]([O-])c1sc2nc(-c3nccs3)cc(-c3cnc(C)n3C)c2c1N (stereo not drawn) | – |
| – | 0.583 | 3100 | 783 | – | < 10 | – | CCCC[S@@+]([O-])c1sc2nc(-c3nccs3)cc(-c3cnc(C)n3C)c2c1N | half-life at 2 µM [7]: > 4 h; concentration at 3 h [8]: < 10 nM |
| 1.38 | – | – | – | 13000 | 4200 | 959 | CCCC[S+]([O-])c1sc2nc(-c3nccs3)cc(-c3ccc(OCCO)cc3)c2c1N (stereo not drawn) | – |
| – | 4.82 | – | – | – | – | – | CCCC[S@+]([O-])c1sc2nc(-c3nccs3)cc(-c3cnc(C)n3C)c2c1N | half-life at 2 µM [7]: 3.73 h |
